Measurements: patent publication US20250313535A1, “ALPHA 4 BETA 7 INTEGRIN MODULATORS AND USES THEREOF” (DICE MOLECULES SV, INC., priority 2022, published 2025)
Read-outs that look alike come from different tables or passages of the source.

Experiments:
Format in all cases: cell-based
[1] = target: T1, α4β7 integrin (Homo sapiens (Human), UniProt P13612+P26010); assay: Integrin Adhesion Assay: Protocol 1 (MAdCAM-coated plate, RPMI-8866 cells, CellTiter GLO readout)
Experimental: α4β7 and α4β1 inhibition was evaluated in vitro using at least one of the following procedures:
Integrin Adhesion Assay: Protocol 1
MAdCAM (R&D Systems, 0.1 ug) was diluted in 50 μL PBS, added to each well of an opaque ELISA plate (Thermo), and incubated overnight at 4° C. Coated plates were washed once with PBS and then blocked with 200 μL of assay buffer (10 mM HEPES, 150 mM NaCl, 1 mM MnCl2, 0.1 mM CaCl2), 1% BSA) for 1 hour at 37° C. and 5% CO2. After incubation, buffer was aspirated from the plates and 50 μL of fresh assay buffer is added. Compounds were added by a compouns dispenser (Tecan) and DMSO concentration was normalized to 1% across each plate. 50 μL of RPMI-8866 cells (2×10^6 per mL) were added to each well and the plates were incubated for 1 hour at 37° C. and 5% CO2. After incubation, plates were allowed to cool to RT for 10 minutes before being washed four times in assay buffer by an automated plate washer (BioTek). After washing, 100 μL of a 1:1 mixture of assay buffer and CellTiter GLO 2.0 reagent (Promega) were added to each well. Plates were mixed for 2 minutes at 1000 rpm and then allowed to incubate an additional 10 minutes before reading out luminescence on a Tecan Spark plate reader. Raw data was converted to percent inhibition based on DMSO only and control compound wells, and curves were analyzed by 4-parameter fit within Dotmatics software.

[2] = target: α4β1 integrin (Homo sapiens (Human), UniProt P05556+P13612); assay: Integrin Adhesion Assay: Protocol 5 (VCAM-coated plate, RPMI-8866 cells with stable LOF mutation of the ITGB7 gene)
α4β1 integrin, sequence (P13612 34-1032): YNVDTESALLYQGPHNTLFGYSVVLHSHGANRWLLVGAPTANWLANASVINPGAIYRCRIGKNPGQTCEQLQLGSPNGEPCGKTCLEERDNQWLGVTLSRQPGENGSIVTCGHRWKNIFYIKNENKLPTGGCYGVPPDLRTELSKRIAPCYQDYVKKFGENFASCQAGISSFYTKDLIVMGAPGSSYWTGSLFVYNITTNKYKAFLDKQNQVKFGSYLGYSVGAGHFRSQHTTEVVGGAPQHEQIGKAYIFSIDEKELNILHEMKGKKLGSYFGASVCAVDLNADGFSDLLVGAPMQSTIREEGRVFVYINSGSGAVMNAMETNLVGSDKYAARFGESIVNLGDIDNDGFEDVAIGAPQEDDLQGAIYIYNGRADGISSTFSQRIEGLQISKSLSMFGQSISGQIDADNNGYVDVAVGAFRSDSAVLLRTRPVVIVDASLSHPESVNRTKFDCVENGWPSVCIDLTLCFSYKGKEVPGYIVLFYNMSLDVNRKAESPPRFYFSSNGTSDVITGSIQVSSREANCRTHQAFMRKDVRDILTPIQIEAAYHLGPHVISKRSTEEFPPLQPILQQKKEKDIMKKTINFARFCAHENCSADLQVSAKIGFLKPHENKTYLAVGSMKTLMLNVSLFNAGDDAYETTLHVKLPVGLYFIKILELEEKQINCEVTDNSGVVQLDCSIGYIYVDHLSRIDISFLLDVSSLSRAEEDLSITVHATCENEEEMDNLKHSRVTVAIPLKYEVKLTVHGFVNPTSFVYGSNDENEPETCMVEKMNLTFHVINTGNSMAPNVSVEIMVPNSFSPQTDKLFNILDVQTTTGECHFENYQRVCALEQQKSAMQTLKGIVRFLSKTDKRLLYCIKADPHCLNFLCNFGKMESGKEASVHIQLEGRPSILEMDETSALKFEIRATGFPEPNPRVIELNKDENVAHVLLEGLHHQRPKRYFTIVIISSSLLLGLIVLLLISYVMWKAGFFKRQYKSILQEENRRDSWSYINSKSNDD
α4β1 integrin, sequence (P05556 21-798): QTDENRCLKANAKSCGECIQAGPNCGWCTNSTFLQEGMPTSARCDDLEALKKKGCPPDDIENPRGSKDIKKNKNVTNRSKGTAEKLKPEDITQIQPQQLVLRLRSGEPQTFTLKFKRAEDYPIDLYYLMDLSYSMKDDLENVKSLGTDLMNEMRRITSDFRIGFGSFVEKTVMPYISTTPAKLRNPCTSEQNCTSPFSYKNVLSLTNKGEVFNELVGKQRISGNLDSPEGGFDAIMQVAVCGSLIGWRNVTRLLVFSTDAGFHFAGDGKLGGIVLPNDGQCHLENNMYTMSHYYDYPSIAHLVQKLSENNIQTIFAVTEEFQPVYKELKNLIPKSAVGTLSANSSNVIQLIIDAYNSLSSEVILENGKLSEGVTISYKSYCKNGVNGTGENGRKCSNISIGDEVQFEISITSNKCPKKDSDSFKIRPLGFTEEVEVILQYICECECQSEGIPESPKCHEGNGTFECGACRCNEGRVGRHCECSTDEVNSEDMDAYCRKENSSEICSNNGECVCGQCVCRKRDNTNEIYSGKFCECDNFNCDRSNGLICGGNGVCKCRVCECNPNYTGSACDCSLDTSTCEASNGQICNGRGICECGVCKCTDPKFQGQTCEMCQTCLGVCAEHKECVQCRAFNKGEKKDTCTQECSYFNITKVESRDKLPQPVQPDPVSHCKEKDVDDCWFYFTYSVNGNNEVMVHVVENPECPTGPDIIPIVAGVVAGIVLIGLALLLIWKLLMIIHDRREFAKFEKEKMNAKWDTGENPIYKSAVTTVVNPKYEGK
Outline: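 RPMI-8866 B cells with CRISPR/Cas9 ITGB7 knockout (clonal, verified by flow cytometry) adhered to VCAM-coated wells for 1 h at 37° C in HEPES/NaCl buffer with 1 mM MnCl2, 0.1 mM CaCl2, 1% BSA, 1% DMSO. Bound cells quantified by CellTiter-Glo luminescence after washing; % inhibition versus DMSO and control, 4-parameter fit.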

[3] = target: T1, α4β7 integrin; assay: Integrin Adhesion Assay: Protocol 4 (MAdCAM-coated plate, RPMI-8866 cells with stable LOF mutation of the ITGB1 gene)
Outline: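 RPMI-8866 cells with CRISPR/Cas9 knockout of ITGB1 (2×10^6/mL) were added to MAdCAM-coated wells with compound (1% DMSO) in HEPES/NaCl buffer with 1 mM MnCl2, 0.1 mM CaCl2 and 1% BSA, then incubated 1 h at 37 °C. After four washes, adherent cells were quantified by CellTiter-Glo luminescence. Percent inhibition versus DMSO and control compound was fitted to 4-parameter curves.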

[4] = integrin adhesion assay, determined by at least one of the assays described (protocol not specified)
[5] = Protocol 5, RPMI-8866 cells with LOF mutation of ITGB7, VCAM, read-out: Mean IC50 α4β1 KO
[6] = Protocol 4, RPMI-8866 cells with LOF mutation of ITGB1, MAdCAM, read-out: Mean IC50 α4β7 KO
[7] = RPMI-8866 cells with stable LOF mutation of the ITGB7 gene, read-out: Mean IC50 α4β1 KO^b
[8] = RPMI-8866 cells with stable LOF mutation of the ITGB1 gene, read-out: Mean IC50 α4β7 KO^a

T1 sequence (P13612 34-1032): as the sequence (P13612 34-1032) above
T1 sequence (P26010 20-798): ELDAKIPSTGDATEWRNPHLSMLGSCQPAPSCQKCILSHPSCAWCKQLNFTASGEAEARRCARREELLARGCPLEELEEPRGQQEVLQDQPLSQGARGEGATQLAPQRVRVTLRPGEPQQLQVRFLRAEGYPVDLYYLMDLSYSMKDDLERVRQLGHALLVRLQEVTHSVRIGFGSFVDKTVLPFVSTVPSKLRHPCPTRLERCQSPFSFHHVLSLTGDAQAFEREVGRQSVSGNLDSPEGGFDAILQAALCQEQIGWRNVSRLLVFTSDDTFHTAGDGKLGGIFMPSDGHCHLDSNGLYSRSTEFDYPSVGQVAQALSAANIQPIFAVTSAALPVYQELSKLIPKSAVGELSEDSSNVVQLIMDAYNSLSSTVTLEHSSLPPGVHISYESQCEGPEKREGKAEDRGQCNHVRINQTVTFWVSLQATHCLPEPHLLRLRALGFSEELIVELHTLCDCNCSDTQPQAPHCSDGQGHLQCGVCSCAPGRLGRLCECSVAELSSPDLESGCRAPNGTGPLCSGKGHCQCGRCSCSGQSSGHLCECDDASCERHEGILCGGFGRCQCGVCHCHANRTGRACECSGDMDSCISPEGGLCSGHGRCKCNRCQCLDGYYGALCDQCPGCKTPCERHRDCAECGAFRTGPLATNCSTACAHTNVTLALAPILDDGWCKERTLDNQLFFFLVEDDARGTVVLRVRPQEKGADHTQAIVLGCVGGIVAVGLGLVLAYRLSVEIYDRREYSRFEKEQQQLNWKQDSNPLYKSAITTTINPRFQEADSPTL

Structure (SMILES) | IC50 [2, 5] [nM] | IC50 [3, 6] [nM] | IC50 [2, 7] [nM] | IC50 [3, 8] [nM] | also measured
Cn1ccc(=O)n(-c2cccc3c(C[C@H](NC(=O)[C@@H]4CCCN4S(=O)(=O)c4ccccc4)C(=O)O)cccc23)c1=O [Compound 109] | – | – | – | – | IC50 [1, 4]: 100 to 1000 nM
Cn1c(=O)c(-c2cccc3c(C[C@H](NC(=O)C45CC(N6CCC(F)(F)CC6)(C4)C5)C(=O)O)cccc23)c(C(F)(F)F)c2ccccc21 [Compound 391] | – | – | – | – | IC50 [1]: > 1000 nM
Cn1ccc(=O)n(-c2cccc3c(C[C@H](NC(=O)C4(C(F)(F)F)CCCCC4)C(=O)O)cccc23)c1=O [Compound 13] | – | – | – | – | IC50 [1, 4]: 10 to 100 nM
Cn1c(=O)c(-c2cccc3c(C[C@H](NC(=O)c4c(F)cc5[nH]c(CC(F)(F)F)nc5c4F)C(=O)O)cccc23)c(C(F)(F)F)c2ccccc21 [Compound 320] | – | – | – | – | IC50 [1]: 100 to 1000 nM
O=C(O)[C@H](Cc1cccc2c(-c3ncc(CN4CCN(C5CC5)CC4)cc3C3CC3)cccc12)NC(=O)C1(C(F)(F)F)CCN(CC(F)(F)F)CC1 [Compound 948] | 100 to 1000 | < 10 | – | – | –
Cn1c(=O)c(-c2cccc3c(C[C@H](NC(=O)C4(C(F)(F)F)CCN(C5COC5)CC4)C(=O)O)cccc23)c(C(F)(F)F)c2ccccc21 [Compound 432] | – | – | 10 to 100 | < 10 | –
COc1cccc(CCN2CCC(F)CC2)c1-c1cccc2c(C[C@H](NC(=O)C3(C(F)(F)F)CCN(CC(F)(F)F)CC3)C(=O)O)cccc12 [Compound 968] | 100 to 1000 | < 10 | – | – | –
O=C(O)[C@H](Cc1cccc2c(-c3ncc(CN4CCCC4)c4ccccc34)cccc12)NC(=O)C1(C(F)(F)F)CCN(CC(F)F)CC1 [Compound 917] | 100 to 1000 | < 10 | – | – | –
COc1cccc(CN2CCC(C)(C)CC2)c1-c1cccc2c(C[C@H](NC(=O)C3(C(F)(F)F)CCN(CC(F)(F)F)CC3)C(=O)O)cccc12 [Compound 829] | > 1000 | 10 to 100 | – | – | –
O=C(O)[C@H](Cc1cccc2c(-c3cccc4cc(CN5CCCCC5)ncc34)cccc12)NC(=O)C1(C(F)(F)F)CCN(CC(F)(F)F)CC1 [Compound 991] | > 1000 | 100 to 1000 | – | – | –
COc1ccc(CN(C)C)c(Cl)c1-c1cccc2c(C[C@H](NC(=O)c3c(C)cccc3F)C(=O)O)cccc12 [Compound 1038] | 100 to 1000 | < 10 | – | – | –
COc1ccc(CN2CCCCC2)c(OC)c1-c1cccc2c(C[C@H](NC(=O)c3c(F)cccc3C(C)C)C(=O)O)cccc12 [Compound 571] | – | – | > 1000 | < 10 | –
CC[C@@H]1CCCCN1Cc1cnc(-c2cccc3c(C[C@H](NC(=O)C4(C(F)(F)F)CCN(CC(F)(F)F)CC4)C(=O)O)cccc23)c2ccccc12 [Compound 931] | 100 to 1000 | < 10 | – | – | –
O=C(O)[C@H](Cc1cccc2c(-c3nccc4ccc(CCCN5CCCCC5)cc34)cccc12)NC(=O)C1(C(F)(F)F)CCN([C@H]2COCC2(F)F)CC1 [Compound 482] | – | – | 100 to 1000 | < 10 | –
COc1ccc(CN2CCC(F)(F)CC2)c(OC)c1-c1cccc2c(C[C@H](NC(=O)c3c(F)cccc3Cl)C(=O)O)cccc12 [Compound 605] | – | – | > 1000 | 10 to 100 | –
O=C(O)[C@H](Cc1cccc2c(-c3ncc(CN4C5CCCC4CC5)c4ccccc34)cccc12)NC(=O)C1(C(F)(F)F)CCN(CC(F)(F)F)CC1 [Compound 884] | > 1000 | < 10 | – | – | –
O=C(O)[C@H](Cc1cccc2c(-c3ncc(CCN4CCCCC4)c4ccccc34)cccc12)NC(=O)C1(C(F)(F)F)CCN(CC(F)(F)F)CC1 [Compound 962] | > 1000 | < 10 | – | – | –
COc1ccc(CN2CCCCC2)cc1-c1cccc2c(C[C@H](NC(=O)C3(C(F)(F)F)CCN(CC(F)(F)F)CC3)C(=O)O)cccc12 [Compound 575] | – | – | 100 to 1000 | < 10 | –
COc1cccc(CCN2CCC(c3ccccc3)CC2)c1-c1cccc2c(C[C@H](NC(=O)C3(C(F)(F)F)CCN(CC(F)F)CC3)C(=O)O)cccc12 [Compound 975] | 100 to 1000 | < 10 | – | – | –
Cn1c(=O)c(-c2cccc3c(C[C@H](NC(=O)C4(C(F)(F)F)CCN(CC(F)F)CC4)C(=O)O)cccc23)c(C(F)(F)F)c2cc(C(F)(F)F)ccc21 [Compound 537] | – | – | > 1000 | 10 to 100 | –

Structure (SMILES) | IC50 [2, 5] [nM] | IC50 [3, 6] [nM] | IC50 [2, 7] [nM] | IC50 [3, 8] [nM] | also measured
O=C(O)[C@H](Cc1cccc2c(-c3nccc4cccc(CN5CCCCC5)c34)cccc12)NC(=O)C1(C(F)(F)F)CCN(CC(F)(F)F)CC1 [Compound 864] | > 1000 | < 10 | – | – | –
COc1ccc(CN2CCC(F)(F)CC2)c(OC)c1-c1cccc2c(C[C@H](NC(=O)c3c(F)ccnc3C)C(=O)O)cccc12 [Compound 615] | – | – | > 1000 | 10 to 100 | –
COc1ccc(CCN2CCCCC2)cc1-c1cccc2c(C[C@H](NC(=O)c3c(C)cccc3F)C(=O)O)cccc12 [Compound 1001] | > 1000 | 10 to 100 | – | – | –
COc1cc(CCN2CCCCC2)cnc1-c1cccc2c(C[C@H](NC(=O)C3(C(F)(F)F)CCN(CC(F)(F)F)CC3)C(=O)O)cccc12 [Compound 983] | > 1000 | < 10 | – | – | –
O=C(O)[C@H](Cc1cccc2c(-c3c(CN4CCCCC4)ccc4ccncc34)cccc12)NC(=O)C1(C(F)(F)F)CCN(CC(F)(F)F)CC1 [Compound 802] | > 1000 | < 10 | – | – | –
O=C(O)[C@H](Cc1cccc2c(-c3ncc(CN4CCC[C@H](F)C4)cc3C3CC3)cccc12)NC(=O)C1(C(F)(F)F)CCN(CC(F)F)CC1 [Compound 953] | 100 to 1000 | < 10 | – | – | –
COc1ccc(CN(C)C)c(OC)c1-c1cccc2c(C[C@H](NC(=O)c3c(C)cccc3CN3CCC(F)(F)CC3)C(=O)O)cccc12 [Compound 588] | – | – | > 1000 | 100 to 1000 | –
COc1ccc(CN2CCC[C@H](F)C2)c(OC)c1-c1cccc2c(C[C@H](NC(=O)C3(C(F)(F)F)CCN(CC(F)(F)F)CC3)C(=O)O)cccc12 [Compound 842] | 100 to 1000 | < 10 | – | – | –
O=C(O)[C@H](Cc1cccc2c(-c3ncc(CN4CCCCC4)c4ccccc34)cccc12)NC(=O)C1(C(F)(F)F)CCN([C@@H]2COCC2(F)F)CC1 [Compound 578] | – | – | > 1000 | < 10 | –
COc1cc(C(F)(F)F)cc(CCN2CCCCC2)c1-c1cccc2c(C[C@H](NC(=O)C3(C(F)(F)F)CCN(CC(F)(F)F)CC3)C(=O)O)cccc12 [Compound 741] | > 1000 | 10 to 100 | – | – | –
COc1cccc(CCCN(C)C)c1-c1cccc2c(C[C@H](NC(=O)C3(C(F)(F)F)CCN(CC(F)(F)F)CC3)C(=O)O)cccc12 [Compound 567] | – | – | 100 to 1000 | < 10 | –
Cn1c(C(F)(F)F)cc(C(F)(F)F)c(-c2cccc3c(C[C@H](NC(=O)C4(C(F)(F)F)CCN(C5COC5)CC4)C(=O)O)cccc23)c1=O [Compound 499] | – | – | 100 to 1000 | < 10 | –
O=C(O)[C@H](Cc1cccc2c(-c3ncc(CN4CCC[C@@H](F)C4)cc3C3CC3)cccc12)NC(=O)C1(C(F)(F)F)CCN(CC(F)F)CC1 [Compound 954] | 100 to 1000 | < 10 | – | – | –
Cn1c(=O)c(-c2cccc3c(C[C@H](NC(=O)c4c(F)cccc4F)C(=O)O)cccc23)c(C(F)(F)F)c2cc(CN)ccc21 [Compound 1051] | 100 to 1000 | < 10 | – | – | –
Cn1c(=O)c(-c2cccc3c(C[C@H](NC(=O)c4c(F)cccc4CN4CCC(C)(C)C4)C(=O)O)cccc23)c(C(F)(F)F)c2ccccc21 [Compound 487] | – | – | > 1000 | 10 to 100 | –
COc1ccc(CN2CCCC(C)(C)C2)c(OC)c1-c1cccc2c(C[C@H](NC(=O)c3c(C)cccc3F)C(=O)O)cccc12 [Compound 565] | – | – | 100 to 1000 | < 10 | –
O=C(O)[C@H](Cc1cccc2c(-c3nccc4c(CN5CCCCC5)cccc34)cccc12)NC(=O)C1(C(F)(F)F)CCN([C@@H]2COCC2(F)F)CC1 [Compound 642] | – | – | > 1000 | < 10 | –
CC1CCN(Cc2ccc3c(c2)c(C(F)(F)F)c(-c2cccc4c(C[C@H](NC(=O)C5(C(F)(F)F)CCN(CC(F)F)CC5)C(=O)O)cccc24)c(=O)n3C)CCC1(F)F (some centres unmarked) [Compound 840] | 10 to 100 | < 10 | – | – | –
COC(=O)[C@H](Cc1cccc2c(-c3nc(CN4CCCCC4)cc4ccncc34)cccc12)NC(=O)C1(C(F)(F)F)CCN(CC(F)(F)F)CC1 [Compound 994] | > 1000 | 10 to 100 | – | – | –
